Key:
[1] = Binding of dabigatran etexilate to activated charcoal in water (simulated stomach fluid), HPLC; assay type: physicochemical; details: for dabigatran etexilate level recovered by HPLC: untreated suspension (no charcoal), filtered
Method: In these experiments, binding of dabigatran etexilate to active charcoal in water simulates recent ingestion (2-5, preferably 2-3 hrs) of large amounts of dabigatran etexilate in the stomach fluid. Binding of dabigatran to active charcoal in plasma simulates situations where dabigatran was absorbed after ingestion and present in high concentrations in plasma. The contents of 5, 10 and 20 capsules (150 mg/capsule) of dabigatran etexilate were suspended in 100 ml water (approx. stomach volume, pH 2.7, 2.5 and 2.4, respectively). Each suspension was divided in half. To one portion a freshly prepared activated charcoal suspension (125 mg/ml, Ultracarbon®, Merck) was added. Both suspensions (with and without charcoal) were filtered and dabigatran etexilate concentrations were assessed via HPLC.

[2] = Binding of dabigatran to active charcoal in plasma, LC-MS/MS; assay type: physicochemical; details: for dabigatran plasma level (mean±SD): untreated plasma (no charcoal)
Method: In these experiments, binding of dabigatran etexilate to active charcoal in water simulates recent ingestion (2-5, preferably 2-3 hrs) of large amounts of dabigatran etexilate in the stomach fluid. Binding of dabigatran to active charcoal in plasma simulates situations where dabigatran was absorbed after ingestion and present in high concentrations in plasma. In the plasma experiments, dabigatran was added to a plasma pool at supra-therapeutic concentrations of 470 and 940 ng/ml. The sample was then split, and active charcoal was added to half at the manufacturer's specified concentration (125 mg/ml), or 1:11 dilution of this. Dabigatran plasma levels were measured by a validated LC-MS/MS method.

dabigatran etexilate peak (HPLC) in charcoal-treated suspensions ([1]; activated charcoal suspension (125 mg/ml, Ultracarbon) added, all three tested concentrations) | dabigatran etexilate adsorbed by the activated charcoal ([1]; activated charcoal suspension (125 mg/ml, Ultracarbon), all three tested concentrations) | dabigatran etexilate level recovered by HPLC ([1]; contents of 5 capsules (150 mg/capsule) in 100 ml water, pH 2.7) | dabigatran etexilate level recovered by HPLC ([1]; contents of 10 capsules (150 mg/capsule) in 100 ml water, pH 2.5) | dabigatran etexilate level recovered by HPLC ([1]; contents of 20 capsules (150 mg/capsule) in 100 ml water, pH 2.4) | dabigatran plasma level after addition of activated charcoal ([2]; activated charcoal at 125 mg/ml or 1:11 dilution, dabigatran added at 470 and 940 ng/ml, close to or below lower limit of quantification) | dabigatran plasma level (mean±SD) ([2]; dabigatran added at 470 ng/ml) | dabigatran plasma level (mean±SD) ([2]; dabigatran added at 940 ng/ml) | SMILES
no longer detectable | > 99.9% | 8.3 mg/mL | 15.6 mg/mL | 29.6 mg/mL | – | – | – | CCCCCCOC(=O)NC(=N)c1ccc(NCc2nc3cc(C(=O)N(CCC(=O)OCC)c4ccccn4)ccc3n2C)cc1 [dabigatran etexilate]
– | – | – | – | – | < 1.01 ng/mL | 394 ± 19.4 ng/mL | 824 ± 39.3 ng/mL | Cn1c(CNc2ccc(C(=N)N)cc2)nc2cc(C(=O)N(CCC(=O)O)c3ccccn3)ccc21 [dabigatran]
